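Results reflect a 48-hour exposure of cells in 96-well plates to compound at five concentrations. GI50: concentration for 50% inhibition of growth. TGI denotes the concentration required for complete inhibition of growth.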
Assays:
Assay in all cases: NCI-60 cell line screen, 48 h
[1] = test system: OVCAR-3 ovarian
[2] = test system: A498 renal
[3] = test system: SR leukemia
[4] = test system: RPMI-8226 leukemia
[5] = test system: SK-OV-3 ovarian
[6] = test system: HOP-92 NSCLC
[7] = test system: NCI-H23 lung
[8] = test system: ACHN renal
[9] = test system: SNB-19 CNS
[10] = test system: M14 melanoma

SMILES | TGI [1] [µM] | TGI [2] [µM] | TGI [3] [µM] | TGI [4] [µM] | TGI [5] [µM] | TGI [6] [µM] | TGI [7] [µM] | TGI [8] [µM] | TGI [9] [µM] | TGI [10] [µM] | GI50 [6] [µM] | GI50 [1] [µM] | GI50 [2] [µM] | GI50 [3] [µM] | GI50 [4] [µM] | GI50 [5] [µM] | GI50 [8] [µM]
CC(=O)OCC1OC(n2c(N)c(C#N)c(-c3ccccc3)c(C#N)c2=S)C(OC(C)=O)C(OC(C)=O)C1OC(C)=O (stereo not given) | > 100 | > 100 | > 100 | > 100 | > 100 | 50.9 | > 100 | > 100 | > 75.4 | > 100 | – | – | – | – | – | – | –
Cc1nc2c(o1)C(=O)c1ccccc1/C2=N/c1ccccn1 | 49.3 | 30.7 | 97.3 | > 100 | > 100 | 36.9 | 23.6 | 39.8 | 28.3 | 33.6 | – | – | – | – | – | – | –
CC(=O)O[C@H]1C[C@]2(C)C(CCC3O[C@@]32C)[C@@]2(CC(c3ccoc3)OC2O)[C@@H]1C (stereo not given in full) | > 100 | > 100 | > 100 | 81.1 | > 100 | > 100 | > 100 | > 100 | > 100 | > 100 | – | – | – | – | – | – | –
O=C(CSc1nc(=O)[nH]c2nc[nH]c12)Nc1ccccc1 | > 100 | > 100 | > 100 | > 100 | > 100 | > 100 | > 100 | > 100 | > 100 | > 100 | – | – | – | – | – | – | –
CCc1n[nH]c(=O)n1N1C(=O)C2CC=CCC2C1=O (stereo not given) | > 100 | > 100 | > 100 | > 100 | > 100 | > 100 | > 100 | > 100 | > 100 | > 100 | – | – | – | – | – | – | –
O=C(Oc1ccccc1)c1cc2cc(CCl)ccc2oc1=O | > 100 | 33.9 | > 100 | > 100 | 83.2 | 28.7 | 42 | 21.1 | > 100 | 67.1 | – | – | – | – | – | – | –
Cc1ccc(/C=C/C(=O)c2c([O-])on[n+]2-c2ccccc2)cc1 | 6.92 | 17.9 | > 27.5 | 6.35 | > 100 | 16.8 | 17.5 | 3.55 | > 33.5 | 5.98 | – | – | – | – | – | – | –
O=C1C2C=CC1C1C(=O)OC(=O)C21 (stereo not given) | > 100 | > 100 | > 100 | > 100 | > 100 | > 100 | > 100 | > 100 | > 100 | > 100 | – | – | – | – | – | – | –
O=C1c2cc3ccccc3cc2C2(c3ccc(Cl)cc3)N[C@H]3CCCC[C@@H]3N12 (stereo not given in full) | 49 | 39.7 | 48.7 | > 100 | 31.9 | 98.5 | 31.3 | 38.7 | 27.9 | 8.65 | – | – | – | – | – | – | –
CC(=O)[O-].CC(=O)[O-].O=C(N/N=C/c1cc(Cl)cc(Cl)c1[OH2+])c1ccncc1.[Co+2] | > 100 | > 100 | > 100 | > 100 | > 100 | 95.9 | > 100 | > 100 | > 100 | > 100 | 23.6 | – | – | – | – | – | –
Cc1ccc2c(c1)NC(=O)CCSSCCC(=O)N2 | > 100 | > 100 | > 100 | > 100 | > 100 | > 100 | > 100 | > 100 | > 100 | > 100 | – | – | – | – | – | – | –
COC(=O)C(CCC1C=CCC1)N=Cc1ccccc1 (stereo not given) | > 100 | > 100 | > 100 | 84.7 | > 100 | > 100 | > 100 | > 100 | > 100 | > 100 | – | – | – | – | – | – | –
NC1C/C(=N\O)c2c(I)sc(I)c21 (stereo not given) | 30.2 | > 58 | > 100 | > 42 | 30.2 | 34.5 | 30.2 | 33.5 | 39.3 | 30.9 | – | – | – | – | – | – | –
CC(=O)Oc1ccc2c(c1)c1c(=O)oc(N(C)C)nc1n2Cc1ccccc1 | > 100 | > 83 | > 100 | > 100 | > 100 | > 100 | > 100 | > 100 | > 100 | > 100 | – | – | – | – | – | – | –
CC(=O)O[C@H]1CC[C@]2(C)[C@H]3CC[C@@H]4[C@H]5[C@H](C(C)C)CC[C@]5(C(=O)OCC(CO)(CO)N=C(N)N)CC[C@@]4(C)[C@]3(C)CC[C@H]2C1(C)C | 3.2 | 3.67 | 4.61 | 4.81 | 3.96 | 2.93 | – | 3.26 | – | – | 1.48 | 1.67 | 1.86 | 2.11 | 2.07 | 2 | 1.8
NC1CC(=O)c2csc(Br)c21 (stereo not given) | 30.7 | > 57.9 | 47.5 | 34.2 | > 100 | 24.5 | 30.8 | 32.2 | > 80.3 | > 53.6 | – | – | – | – | – | – | –
C1COC(NC(C2CC2)C2CC2)=N1 | > 100 | > 100 | > 100 | > 100 | > 100 | > 100 | > 100 | > 100 | > 100 | > 100 | – | – | – | – | – | – | –
O=C1OC(c2ccc(O)c(Cl)c2)(c2ccc(O)c(Cl)c2)c2ccc(Br)c3cccc1c23 (tested in a mixture with another compound) | 21.8 | 31.7 | 45.4 | 44.5 | 32.2 | 26.1 | 34.8 | 27.2 | 44.4 | 49.6 | – | – | – | – | – | – | 13.9
CCCN1C(=O)CCC2=C1CCc1c2ccc(Cl)c1Cl | 86.7 | 33.2 | > 100 | > 100 | 69.1 | 56.6 | > 100 | > 100 | > 100 | > 100 | – | – | – | – | – | – | –
O=C(CN1CCN(C(=O)OCc2ccccc2)CCN(CC(=O)N2CCCCC2)CCN(C(=O)OCc2ccccc2)CC1)N1CCCCC1 | 22.8 | 47.1 | 11.8 | 37.3 | > 52.7 | 27.2 | > 100 | > 54 | > 52.5 | 25 | – | – | – | – | – | – | –
COc1cccc2cc(C(N)=O)c(=N)oc12 | > 100 | > 100 | > 100 | > 100 | > 100 | > 100 | > 100 | > 100 | > 100 | > 100 | – | – | – | – | – | – | –
CC1(c2ccc(Cl)cc2)CC(c2ccc(Cl)cc2)=C(C#N)C(=C(C#N)C#N)N1 (stereo not given) | 24.3 | 40 | > 100 | > 100 | 31.2 | 11 | 34.7 | 28 | 39.6 | 36.6 | – | – | – | – | – | – | –
O=C(/C=C/c1ccc(O)c(O)c1)OCCc1cccc2ccccc12 | 14.1 | 24.8 | 5.64 | 20.5 | – | 23.8 | 14 | 13.4 | 28.4 | 20.3 | – | – | – | – | – | – | –
COc1ccc2c3c1OC1C(=O)C=CC4(O)C(C2)NCC[C@@]314 (stereo not given in full) | 3.99 | 9.39 | 35.8 | 13.2 | 11.2 | 20.5 | 5.64 | 12.6 | 19.1 | 6.61 | – | – | – | – | – | – | –
OCCN(CCO)c1ccc2c(C(F)(F)F)cc(C(F)(F)F)nc2n1 | > 100 | > 100 | > 100 | > 100 | > 100 | > 100 | > 100 | > 100 | > 100 | > 100 | – | – | – | – | – | – | –
COC(=O)NCCc1[nH]nc2c1C(=O)C=C(Nc1ccccc1)C2=O | > 100 | > 100 | 65.2 | > 100 | > 100 | 95.5 | 31.4 | > 100 | > 100 | > 100 | – | – | – | – | – | – | –
COc1ccc(C2SCC(=O)N2c2ccc(-c3ccc(-n4c(-c5ccccc5)nc5ccccc5c4=O)cc3)cc2)cc1 (stereo not given) | 46.8 | > 100 | > 100 | > 100 | > 100 | > 100 | > 100 | > 100 | > 100 | > 100 | – | – | – | – | – | – | –

Source: PubChem BioAssay (NCI)
